Experiments:
[1] = system: Z α1‐antitrypsin polymers; set-up: method as in Hidvegi et al, 2010; details: Z α1‐antitrypsin transgenic mice, 2 weeks of dosing; ref Hidvegi et al, 2010; cited from earlier work
[2] = biological target: bovine α‐chymotrypsin (bovine)
Z α1‐antitrypsin = Z α1‐antitrypsin (Homo sapiens, UniProt P01009, E366K); test: TR‐FRET immunoassay (2C1 antibody) of Z α1‐antitrypsin polymerisation, 37°C, 72 h; type: biochemical; set-up: purified from the plasma of Z α1‐antitrypsin homozygotes; from tissue; host or cells: human plasma of Z α1-antitrypsin homozygotes; details: 5 nM Z α1‐antitrypsin, 37°C, 72 h; read-out: pIC50, blocking polymerisation in the TR‐FRET immunoassay (converted)
Chain of Z α1‐antitrypsin (P01009 25-418 E366K): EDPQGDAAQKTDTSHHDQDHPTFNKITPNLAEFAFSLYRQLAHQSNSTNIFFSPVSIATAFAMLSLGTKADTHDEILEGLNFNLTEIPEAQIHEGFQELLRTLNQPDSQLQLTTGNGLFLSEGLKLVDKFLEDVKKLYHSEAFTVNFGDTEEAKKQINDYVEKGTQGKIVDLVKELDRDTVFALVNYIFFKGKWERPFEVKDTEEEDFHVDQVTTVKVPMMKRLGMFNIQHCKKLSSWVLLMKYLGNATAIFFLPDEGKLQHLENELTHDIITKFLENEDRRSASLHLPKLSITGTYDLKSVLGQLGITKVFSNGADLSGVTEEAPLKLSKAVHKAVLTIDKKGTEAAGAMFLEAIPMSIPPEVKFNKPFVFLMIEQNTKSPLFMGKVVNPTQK
From the text: Z α1‐antitrypsin is a conformationally dynamic molecule (Lomas et al, 1992; Knaupp et al, 2010) that represents a non‐classical target for drug discovery. A cell‐free assay approach to hit finding was undertaken so as not to miss compounds that bind α1‐antitrypsin and block polymerisation but lack the molecular properties to cross cell membranes. This comprised the following: (i) an encoded library technology (ELT) screen (Goodnow et al, 2017) of a library with a nominal diversity of 2 × 10^12 unique components to identify binders to Z α1‐antitrypsin and (ii) a high‐throughput screen (HTS) of the GSK compound collection (~ 1.7 million compounds) for small molecules that could block polymerisation of Z α1‐antitrypsin. […] In the HTS assay, polymerisation of purified Z α1‐antitrypsin was induced by incubation at 37°C for 72 h in the presence of test compounds, with end‐point quantification of polymers performed using the polymer‐specific monoclonal antibody, 2C1 (Miranda et al, 2010) in a TR‐FRET‐based immunoassay. […]
An antibody‐based time‐resolved fluorescence resonance energy transfer (TR‐FRET) assay was developed to monitor the polymerisation of 5 nM Z α1‐antitrypsin following incubation with varying concentrations of compounds at 37°C for 72 h. This assay used the 2C1 monoclonal antibody (1.25 nM) that is specific to pathological polymers of α1‐antitrypsin (Miranda et al, 2010), a polyclonal antibody (1/320 dilution) that binds to all forms of α1‐antitrypsin (Abcam product 9373), an anti‐mouse IgG (1.5 nM) labelled with fluorescence donor Eu‐W1024 (Perkin Elmer product AD0076) and an anti‐rabbit IgG (14.3 nM labelled with acceptor [APC]). […] The TR‐FRET signal was read on an Envision plate reader (PerkinElmer), by excitation of Europium at 337 nm and detection of emission at 665 and 620 nm.

Chain of wild‐type M α1‐antitrypsin, purified from plasma (P01009 25-418): as the sequence (P01009 25-418 E366K) above, with K342E counted along it

NC(=O)N1c2ccccc2C=Cc2ccccc21 [carbamazepine]
effect on liver polymer [1]: profound effects on liver polymer

wild‐type M α1‐antitrypsin, purified from plasma (from UniProt P01009 25-418) (natural protein)
protease inhibitory activity (stoichiometry of inhibition, residual chymotrypsin activity) after pre‐incubation with 50 µM GSK716 [2]: > 98%

CCCC(NC(=O)c1ccc2cc[nH]c2c1)C(O)c1ccccc1 (stereo not drawn) [GSK425]
IC50 (Z α1‐antitrypsin): 316 nM
